The results in this text go back to ChEMBL document CHEMBL2311483, “HCV NS5A replication complex inhibitors. Part 3: discovery of potent analogs with distinct core topologies” (Bioorg Med Chem Lett, 2013).

pEC50: −log10 of the molar value. Values after ≈ are worked out from the molar mass of the structure shown.

For data set [1], the system named is Bovine viral diarrhea virus 1. Kind of data set: Antiviral activity against Bovine viral diarrhea virus infected in human HuH7 cells assessed as inhibition of viral replication by luciferase reporter gene assay. It counts as functional, organism-based. As to conditions: Bovine viral diarrhea virus isolates and strains, Huh-7.
Data set [2] can be described thus: Cytotoxicity against human HuH7 cells after 72 hrs by Alamar blue assay. It counts as cell-based, Huh-7. For orientation: Alamar Blue is a resazurin reagent that responds to reducing activity.
Another data set relates to Hepatitis C virus. Briefly: Antiviral activity against HCV1b harboring NS5B infected in human HuH7 cells assessed as inhibition of viral replication after 72 hrs by FRET assay. It counts as functional, organism-based, Hepacivirus hominis. As to conditions: genotype 1b, Huh-7, 72 h.
Data set [3] is described as follows: Solubility of the compound in phosphate buffer at pH 6.5. In kind it is physicochemical.

One may read the pEC50 as the EC50 on a negative log10 scale, so that one unit is a factor of ten. As usually defined, the CC50 is the concentration at which the toxic effect on the cells reaches its halfway point. A lower CC50 goes with greater toxicity to the cells. With `O=C(Nc1ccc(/C=C/c2ccc(NC(=O)[C@@H]3CCCN3C(=O)Cc3ccccc3)cc2)cc1)[C@@H]1CCCN1C(=O)Cc1ccccc1`, the negative-log EC50 (pEC50) in data set [1] was below 5.00; in the data set with Hepatitis C virus, 10.05. Besides, the CC50 at 72 h in data set [2] was above 10 µM.
Take `O=C(Nc1ccc(-c2ccc(NC(=O)[C@@H]3CCCN3C(=O)Cc3ccccc3)cc2)cc1)[C@@H]1CCCN1C(=O)Cc1ccccc1`: the pEC50 with Hepatitis C virus is 6.69.
`O=C(Nc1ccc(CN2CCc3cc(NC(=O)[C@@H]4CCCN4C(=O)Cc4ccccc4)ccc3C2)cc1)[C@@H]1CCCN1C(=O)Cc1ccccc1`: the pEC50 in data set [1] was below 5.00; in the data set on Hepatitis C virus, 6.80. For the same compound, the CC50 at 72 h in data set [2] was above 10 µM.
The corresponding values for `O=C(Nc1cccc(CN2CCc3ccc(NC(=O)[C@@H]4CCCN4C(=O)Cc4ccccc4)cc3C2)c1)[C@@H]1CCCN1C(=O)Cc1ccccc1` are below 5.00, 5.41 and above 10 µM.
`O=C(Nc1ccc(-c2nnc(-c3ccc(NC(=O)[C@@H]4CCCN4C(=O)Cc4ccccc4)cc3)o2)cc1)[C@@H]1CCCN1C(=O)Cc1ccccc1`: the figures for the pEC50 (in data set [1]; in the data set on Hepatitis C virus) were below 5.00 and 6.83, respectively. Besides, in data set [2], the CC50 at 72 h was above 10 µM.
The corresponding values for `O=C(Nc1ccc(-c2cnc(-c3ccc(NC(=O)[C@@H]4CCCN4C(=O)Cc4ccccc4)cc3)o2)cc1)[C@@H]1CCCN1C(=O)Cc1ccccc1` are below 5.00, 8.62 and above 10 µM.
The corresponding values for `O=C(Nc1ccc(-c2coc(-c3ccc(NC(=O)[C@@H]4CCCN4C(=O)Cc4ccccc4)cc3)n2)cc1)[C@@H]1CCCN1C(=O)Cc1ccccc1` are below 5.00, 8.88 and above 10 µM.
On the same counts, the results for `O=C(Nc1ccc(-c2ccc(-c3ccc(NC(=O)[C@@H]4CCCN4C(=O)Cc4ccccc4)cc3)s2)cc1)[C@@H]1CCCN1C(=O)Cc1ccccc1` are below 5.00, 7.83 and above 10 µM.
Consider `O=C(Nc1ccc(-c2c[nH]c(-c3ccc(NC(=O)[C@@H]4CCCN4C(=O)Cc4ccccc4)cc3)n2)cc1)[C@@H]1CCCN1C(=O)Cc1ccccc1`, for which the pEC50 in data set [1] was below 5.00; in the data set with Hepatitis C virus, 7.17. In data set [2], this compound registered a CC50 at 72 h above 10 µM.
The corresponding values for `O=C(Nc1ccc(-c2cc(-c3ccc(NC(=O)[C@@H]4CCCN4C(=O)Cc4ccccc4)cc3)[nH]n2)cc1)[C@@H]1CCCN1C(=O)Cc1ccccc1` are below 5.00, 9.15 and above 10 µM.
For the compound `Cn1nc(-c2ccc(NC(=O)[C@@H]3CCCN3C(=O)Cc3ccccc3)cc2)cc1-c1ccc(NC(=O)[C@@H]2CCCN2C(=O)Cc2ccccc2)cc1`, the pEC50 in data set [1] is below 5.00; in the data set on Hepatitis C virus it was 6.74. In addition, in data set [2], the CC50 at 72 h was above 10 µM.
On the same counts, the results for `O=C(Nc1ccc(/C=C\c2ccc(NC(=O)[C@@H]3CCCN3C(=O)Cc3ccccc3)cc2)cc1)[C@@H]1CCCN1C(=O)Cc1ccccc1` are below 5.00, 7.91 and above 10 µM.
One may read the solubility as the concentration that dissolves in the medium under given conditions. For `O=C(Nc1ccc([C@H]2C[C@@H]2c2ccc(NC(=O)[C@@H]3CCCN3C(=O)Cc3ccccc3)cc2)cc1)[C@@H]1CCCN1C(=O)Cc1ccccc1`, in data set [3], the solubility came to 0.003 mg/mL (≈ 4.58 µM). Besides, the pEC50 in data set [1] is below 5.00; in the data set with Hepatitis C virus, 8.25. The compound also showed a CC50 at 72 h in data set [2] above 10 µM.
Turning to `O=C(Nc1ccc([C@H]2C[C@H]2c2ccc(NC(=O)[C@@H]3CCCN3C(=O)Cc3ccccc3)cc2)cc1)[C@@H]1CCCN1C(=O)Cc1ccccc1`, the pEC50 in data set [1] is below 5.00; with Hepatitis C virus, 6.10. For the same compound, in data set [2], the CC50 at 72 h is above 10 µM.
On the same counts, the results for `O=C(Nc1ccc(NC(=O)[C@@H]2CCCN2C(=O)Cc2ccccc2)cc1)c1ccc(NC(=O)[C@@H]2CCCN2C(=O)Cc2ccccc2)cc1` are below 5.00, 7.96 and above 10 µM.
On to `CN(C(=O)c1ccc(NC(=O)[C@@H]2CCCN2C(=O)Cc2ccccc2)cc1)c1ccc(NC(=O)[C@@H]2CCCN2C(=O)Cc2ccccc2)cc1`, for which the figures for the pEC50 (in data set [1]; in the data set on Hepatitis C virus) were below 5.00 and 5.20, respectively. Moreover, the CC50 at 72 h in data set [2] is above 10 µM.
Consider `O=C(Nc1ccc(N2CCc3cc(NC(=O)[C@@H]4CCCN4C(=O)Cc4ccccc4)ccc3C2)nc1)[C@@H]1CCCN1C(=O)Cc1ccccc1`, for which the figures for the pEC50 (in data set [1]; in the data set on Hepatitis C virus) were below 5.00 and 8.76, respectively. The CC50 at 72 h in data set [2] was above 10 µM.
`O=C(Nc1ccc(-c2nc3ccc(NC(=O)[C@@H]4CCCN4C(=O)Cc4ccccc4)cc3[nH]2)cc1)[C@@H]1CCCN1C(=O)Cc1ccccc1`: the pEC50 is below 5.00 in data set [1] and 5.98 in the data set with Hepatitis C virus. For the same compound, the CC50 at 72 h in data set [2] is above 10 µM.
The corresponding values for `O=C(Nc1ccc(CCc2ccc(NC(=O)[C@@H]3CCCN3C(=O)Cc3ccccc3)cc2)cc1)[C@@H]1CCCN1C(=O)Cc1ccccc1` are below 5.00, 8.22 and above 10 µM.
As to `O=C(Nc1ccc(COc2ccc(NC(=O)[C@@H]3CCCN3C(=O)Cc3ccccc3)cc2)cc1)[C@@H]1CCCN1C(=O)Cc1ccccc1`, the pEC50 in data set [1] is below 5.00; in the data set on Hepatitis C virus, 7.01. For the same compound, the CC50 at 72 h in data set [2] is above 10 µM.
The corresponding values for `O=C(Nc1ccc(C#Cc2ccc(NC(=O)[C@@H]3CCCN3C(=O)Cc3ccccc3)cc2)cc1)[C@@H]1CCCN1C(=O)Cc1ccccc1` are below 5.00, 8.20 and above 10 µM.
On the same counts, the results for `O=C(Nc1ccc(-c2nc[nH]c2-c2ccc(NC(=O)[C@@H]3CCCN3C(=O)Cc3ccccc3)cc2)cc1)[C@@H]1CCCN1C(=O)Cc1ccccc1` are below 5.00, 7.68 and above 10 µM.
On the same counts, the results for `O=C(Nc1ccc(-c2nn[nH]c2-c2ccc(NC(=O)[C@@H]3CCCN3C(=O)Cc3ccccc3)cc2)cc1)[C@@H]1CCCN1C(=O)Cc1ccccc1` are below 5.00, 8.09 and above 10 µM.
For `O=C(Nc1ccc(-c2c[nH]nc2-c2ccc(NC(=O)[C@@H]3CCCN3C(=O)Cc3ccccc3)cc2)cc1)[C@@H]1CCCN1C(=O)Cc1ccccc1`, the negative logarithm of the EC50 (pEC50) was below 5.00 in data set [1] and 8.34 with Hepatitis C virus. The compound further yielded a CC50 at 72 h in data set [2] above 10 µM.
`O=C(Nc1ccc(Cc2ccc(NC(=O)[C@@H]3CCCN3C(=O)Cc3ccccc3)cc2)cc1)[C@@H]1CCCN1C(=O)Cc1ccccc1`: the pEC50 in data set [1] was below 5.00; in the data set with Hepatitis C virus, 5.77. The same compound had a CC50 at 72 h in data set [2] above 10 µM.
For the compound `O=C(Nc1ccc(Oc2ccc(NC(=O)[C@@H]3CCCN3C(=O)Cc3ccccc3)cc2)cc1)[C@@H]1CCCN1C(=O)Cc1ccccc1`, the pEC50 in data set [1] was below 5.00; in the data set on Hepatitis C virus, 5.70. The compound further registered a CC50 at 72 h in data set [2] above 10 µM.
On the same counts, the results for `O=C(c1ccc(NC(=O)[C@@H]2CCCN2C(=O)Cc2ccccc2)cc1)c1ccc(NC(=O)[C@@H]2CCCN2C(=O)Cc2ccccc2)cc1` are below 5.00, 5.40 and above 10 µM.
For the compound `CC(C)(c1ccc(NC(=O)[C@@H]2CCCN2C(=O)Cc2ccccc2)cc1)c1ccc(NC(=O)[C@@H]2CCCN2C(=O)Cc2ccccc2)cc1`, the pEC50 in data set [1] was below 5.00; with Hepatitis C virus, 6.20. This compound also displayed a CC50 at 72 h in data set [2] above 10 µM.
On the same counts, the results for `O=C(Nc1ccc(CCCc2ccc(NC(=O)[C@@H]3CCCN3C(=O)Cc3ccccc3)cc2)cc1)[C@@H]1CCCN1C(=O)Cc1ccccc1` are below 5.00, 7.44 and above 10 µM.
`CN1Cc2cc(NC(=O)[C@@H]3CCCN3C(=O)Cc3ccccc3)ccc2CC1c1ccc(NC(=O)[C@@H]2CCCN2C(=O)Cc2ccccc2)cc1` (mixture of isomers): the solubility in data set [3] amounted to 0.135 mg/mL. The pEC50 is below 5.00 in data set [1] and 7.86 in the data set on Hepatitis C virus. The same compound came in with a CC50 at 72 h in data set [2] above 10 µM.
